SMILES strings stand for the structures.

T1 sequence (Q16539 whole entry): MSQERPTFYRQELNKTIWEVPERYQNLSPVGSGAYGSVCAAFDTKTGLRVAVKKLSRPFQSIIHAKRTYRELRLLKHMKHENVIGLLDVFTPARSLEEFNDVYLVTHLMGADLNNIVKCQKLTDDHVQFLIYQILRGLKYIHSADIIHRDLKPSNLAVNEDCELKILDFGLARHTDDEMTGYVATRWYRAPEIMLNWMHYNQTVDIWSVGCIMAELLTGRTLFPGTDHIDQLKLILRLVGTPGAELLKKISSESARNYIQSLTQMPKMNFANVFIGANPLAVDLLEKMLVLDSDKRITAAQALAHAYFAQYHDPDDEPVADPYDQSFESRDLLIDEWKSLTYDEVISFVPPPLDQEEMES

The first test addresses T1, active p38 alpha enzyme (Upstate Biotechnology) (Homo sapiens, UniProt Q16539).
T1 construct: purchased Upstate Biotechnology
Briefly: p38α biochemical assay (ATP turnover, luminescent detection, Cambrex PKlight). As to conditions: p38α biochemical assay, Table 1 Biological Activity. The method, boiled down: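 In this kinase reaction, p38α used MapkapK2 as phosphorylation substrate at low ATP (1.4 uM final) over 2 hours at 30C, and activity was followed as ATP turnover by luminescence.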
Turning to `Cc1cccc(C(=O)NCc2onc(-c3ccc(F)cc3)c2-c2nc(C(=O)NC(C)C)cs2)c1O` [Example 617], the IC50 is > 1000 nM. Turning to `CC(C)NC(=O)c1csc(-c2oc(CNC(=O)C(Cc3ccccc3)NC(=O)OC(C)(C)C)nc2-c2ccc(F)cc2)n1` (stereo not shown) [Example 331], the IC50 was ≤ 1000 nM.

Take `CC(C)NC(=O)c1csc(-c2oc(CNC(=O)/C=C/c3ccccc3Cl)nc2-c2ccc(F)cc2)n1` [Example 231]: the IC50 was > 1000 nM. For `CC(C)NC(=O)c1csc(-c2oc(CNC(=O)CCc3cccc(Br)c3)nc2-c2ccc(F)cc2)n1` [Example 310], the IC50 is > 1000 nM. Same read-out and setting: with `CC(C)NC(=O)c1csc(-c2c(-c3ccc(F)cc3)noc2CNC(=O)c2ccc([N+](=O)[O-])c(O)c2)n1` [Example 707] the figure was > 1000 nM; with `CC(C)CC(=O)NCc1nc(-c2ccc(F)cc2)c(-c2nc(C(=O)NC(C)C)cs2)o1` [Example 104], ≤ 1000 nM. Same read-out and setting: with `CC(C)NC(=O)c1csc(-c2c(-c3ccc(F)cc3)noc2CNC(=O)c2cccc3ccccc23)n1` [Example 669] the figure was ≤ 1000 nM.

On to `Cc1ccccc1OCC(=O)N1CCN(Cc2nc(-c3ccc(F)cc3)c(-c3nc(C(=O)NC(C)C)cs3)o2)CC1` [Example 417], for which the IC50 was > 1000 nM. Still for that read-out and setting: under `CC(C)NC(=O)c1csc(-c2oc(CNC(=O)c3cc(F)cc(F)c3)nc2-c2ccc(F)cc2)n1` [Example 160] stands > 1000 nM. On the same count and under the same terms, under `COc1ccc(O)c(C(=O)NCc2onc(-c3ccc(F)cc3)c2-c2nc(C(=O)NC(C)C)cs2)c1` [Example 662] stands > 1000 nM; under `Cc1ccccc1OCC(=O)NCc1nc(-c2ccc(F)cc2)c(-c2nc(C(=O)NC(C)C)cs2)o1` [Example 180], > 1000 nM; under `CC(C)NC(=O)c1csc(-c2oc(CN3CCN(C(=O)c4cccc(Cl)c4Cl)CC3)nc2-c2ccc(F)cc2)n1` [Example 488], > 1000 nM. Take `CC(C)NC(=O)c1csc(-c2c(-c3ccc(F)cc3)noc2CNC(=O)C2CCCN2C(=O)OC(C)(C)C)n1` (stereo not shown) [Example 770]: the IC50 is > 1000 nM. The same measure, in the same setting: with `CC(C)NC(=O)c1csc(-c2oc(CNC(=O)C3Cc4ccccc4CN3C(=O)OC(C)(C)C)nc2-c2ccc(F)cc2)n1` (stereo not shown) [Example 333] the figure was > 1000 nM. Same read-out and setting: with `CC(C)NC(=O)c1csc(-c2oc(CN3CCN(C(=O)COc4ccccc4C=O)CC3)nc2-c2ccc(F)cc2)n1` [Example 449] the figure was > 1000 nM; with `CC(C)NC(=O)c1csc(-c2oc(CNC(=O)/C=C/c3cccc(O)c3)nc2-c2ccc(F)cc2)n1` [Example 168], ≤ 1000 nM. With `CC(C)NC(=O)c1csc(-c2[nH]c(CN3CCNCC3)nc2-c2ccc(F)cc2)n1` [Example 83, 2-|5-(4-Fluoro-phenyl)-2-piperazin-1-ylmethyl-3H-imidazol-4-yl|-thiazole-4-carboxylic acid isopropylamide], the IC50 is ≤ 1000 nM.

For `CC(C)NC(=O)c1csc(-c2c(-c3ccc(F)cc3)noc2CNC(=O)C(C)NC(=O)OC(C)(C)C)n1` (stereo not shown) [Example 723], the IC50 is > 1000 nM. Still for that read-out and setting: under `CC(C)NC(=O)c1csc(-c2oc(CNC(=O)c3cc4cc(Cl)ccc4o3)nc2-c2ccc(F)cc2)n1` [Example 264] stands ≤ 1000 nM; under `CC(C)NC(=O)c1csc(-c2c(-c3ccc(F)cc3)noc2CNC(=O)c2cc(F)c(F)c(O)c2F)n1` [Example 729], > 1000 nM; under `COC(=O)c1ccc(C(=O)N2CCN(Cc3nc(-c4ccc(F)cc4)c(-c4nc(C(=O)NC(C)C)cs4)o3)CC2)cc1` [Example 451], > 1000 nM. On the same count and under the same terms, under `CCc1ccc(C(=O)NCc2nc(-c3ccc(F)cc3)c(-c3nc(C(=O)NC(C)C)cs3)o2)cc1` [Example 140] stands > 1000 nM.

Staying with this test, now noted: p38α kinase; Table 1 Biological Activity.
Take `Cc1nc(-c2ccc(F)cc2)c(-c2nc(C(=O)Nc3cccc(Cl)c3C)cs2)s1` [Example 1992]: the IC50 is ≤ 1000 nM. Still for that read-out and setting: with `Cc1nc(-c2ccc(F)cc2)c(-c2nc(C(=O)N3CCSCC3)cs2)s1` [Example 1854] the figure was > 1000 nM; with `CCOC(=O)C1CCCN(Cc2onc(-c3ccc(F)cc3)c2-c2nc(C(=O)NC(C)C)cs2)C1` (stereo not shown) [Example 1563], > 1000 nM; with `CC(C)NC(=O)c1csc(-c2c(-c3ccc(F)cc3)noc2CN2CCN(c3ccc(Cl)c(Cl)c3)CC2)n1` [Example 1624], > 1000 nM.

As to `CCCCCc1ccc(C(=O)N2CCC(c3[nH]nc(-c4ccc(F)cc4)c3-c3nc(C(=O)NC(C)C)cs3)CC2)cc1` [Example 971], the IC50 was > 1000 nM. Consider `CNC(=O)c1csc(-c2sc(C)nc2-c2ccc(F)cc2)n1` [Example 1705], for which the IC50 is ≤ 1000 nM. In the case of `CC(C)NC(=O)c1csc(-c2c(-c3ccc(F)cc3)n[nH]c2C2CCN(C(=O)c3ccnc(Cl)c3)CC2)n1` [Example 868], the IC50 was ≤ 1000 nM.

Take `C[C@H](NC(=O)c1csc(-c2c(-c3ccc(F)cc3)n[nH]c2C2CCNCC2)n1)c1ccccc1` [Example 2074]: the IC50 was > 1000 nM.

`Cc1cccc(CNCc2nc(-c3ccc(F)cc3)c(-c3nc(C(=O)NC(C)C)cs3)o2)c1` [Example 1096]: the IC50 is > 1000 nM. Still for that read-out and setting: under `Cc1ccc(NCc2nc(-c3ccc(F)cc3)c(-c3nc(C(=O)NC(C)C)cs3)o2)cc1C` [Example 1318] stands > 1000 nM; under `CCOc1ccc(OCC)c(NCc2nc(-c3ccc(F)cc3)c(-c3nc(C(=O)NC(C)C)cs3)o2)c1` [Example 1366], > 1000 nM.

As for `CC(C)NC(=O)c1csc(-c2c(-c3ccc(F)cc3)n[nH]c2C2CCN(C(=O)C(Cc3ccccn3)NC(=O)OC(C)(C)C)CC2)n1` (stereo not shown) [Example 1046], the IC50 was > 1000 nM. Still for that read-out and setting: with `CCC(CO)NC(=O)c1csc(-c2sc(C)nc2-c2ccc(F)cc2)n1` (stereo not shown) [Example 1728] the figure was ≤ 1000 nM; with `CCN(CCCCO)C(=O)c1csc(-c2sc(C)nc2-c2ccc(F)cc2)n1` [Example 1865], > 1000 nM; with `CC(C)NC(=O)c1csc(-c2oc(CNCc3ccccc3OC(F)(F)F)nc2-c2ccc(F)cc2)n1` [Example 1175], ≤ 1000 nM.

`COc1cc(Cl)ccc1C(=O)N1CCC(c2[nH]nc(-c3ccc(F)cc3)c2-c2nc(C(=O)NC(C)C)cs2)CC1` [Example 953]: the 50% inhibitory concentration (IC50) was > 1000 nM. With `CC(C)NC(=O)c1csc(-c2c(-c3ccc(F)cc3)noc2CNCc2ccc3c(c2)OCO3)n1` [Example 1472], the IC50 is > 1000 nM.

As for `CCCN(C)C(=O)c1csc(-c2sc(C)nc2-c2ccc(F)cc2)n1` [Example 1838], the IC50 was > 1000 nM. Same read-out and setting: under `Cc1nc(-c2ccc(F)cc2)c(-c2nc(C(=O)NC(C)CC(C)C)cs2)s1` (stereo not shown) [Example 1735] stands > 1000 nM. On the same count and under the same terms, under `CC(C)NC(=O)c1csc(-c2oc(CNC(C)Cc3ccncc3)nc2-c2ccc(F)cc2)n1` (stereo not shown) [Example 1121] stands > 1000 nM; under `Cc1ccc(S(=O)(=O)NCCNC(=O)c2csc(-c3c(-c4ccc(F)cc4)n[nH]c3C3CCNCC3)n2)cc1` [Example 2157], > 1000 nM. On the same count and under the same terms, under `CC(C)NC(=O)c1csc(-c2c(-c3ccc(F)cc3)noc2CN)n1` [Example 810] stands ≤ 1000 nM; under `Cc1nc(-c2ccc(F)cc2)c(-c2nc(C(=O)N3CCCCC3CCO)cs2)s1` (stereo not shown) [Example 1873], > 1000 nM; under `CC(C)NC(=O)c1csc(-c2c(-c3ccc(F)cc3)n[nH]c2C2CCN(C(=O)c3c(Cl)cc(Cl)cc3Cl)CC2)n1` [Example 1020], > 1000 nM. For `CCN(CC)CCNCc1nc(-c2ccc(F)cc2)c(-c2nc(C(=O)NC(C)C)cs2)o1` [Example 1095], the half-maximal inhibitory concentration (IC50) was > 1000 nM. Same read-out and setting: with `COc1ccc(Br)c(C(=O)N2CCC(c3[nH]nc(-c4ccc(F)cc4)c3-c3nc(C(=O)NC(C)C)cs3)CC2)c1` [Example 1030] the figure was > 1000 nM; with `CC(=O)c1cccc(NCc2onc(-c3ccc(F)cc3)c2-c2nc(C(=O)NC(C)C)cs2)c1` [Example 1658], ≤ 1000 nM; with `COc1cccc(CCNC(=O)c2csc(-c3sc(C)nc3-c3ccc(F)cc3)n2)c1` [Example 1797], ≤ 1000 nM.

On to `Cc1cccc(CNC(=O)c2csc(-c3c(-c4ccc(F)cc4)n[nH]c3C3CCNCC3)n2)c1` [Example 2073], for which the IC50 is > 1000 nM. Same read-out and setting: with `CC(C)NC(=O)c1csc(-c2c(-c3ccc(F)cc3)noc2CN2CCN(c3ccccc3F)CC2)n1` [Example 1579] the figure was > 1000 nM; with `CCN(CC)CCN(Cc1ccccc1)Cc1nc(-c2ccc(F)cc2)c(-c2nc(C(=O)NC(C)C)cs2)o1` [Example 1281], > 1000 nM. Turning to `CC(C)NC(=O)c1csc(-c2oc(CN3CCC(N(C)C)C3)nc2-c2ccc(F)cc2)n1` (stereo not shown) [Example 1209], the IC50 is > 1000 nM. Still for that read-out and setting: under `CC(C)NC(=O)c1csc(-c2c(-c3ccc(F)cc3)noc2CN(C)CCc2ccccc2)n1` [Example 1552] stands > 1000 nM.

With `CC(C)C(C)NC(=O)c1csc(-c2c(-c3ccc(F)cc3)n[nH]c2C2CCNCC2)n1` (stereo not shown) [Example 2047], the IC50 was > 1000 nM. Still for that read-out and setting: with `Cc1nc(-c2ccc(F)cc2)c(-c2nc(C(=O)N(CCO)Cc3ccccc3)cs2)s1` [Example 1884] the figure was > 1000 nM; with `Cc1nc(Br)sc1C(=O)N1CCC(c2[nH]nc(-c3ccc(F)cc3)c2-c2nc(C(=O)NC(C)C)cs2)CC1` [Example 1016], > 1000 nM; with `CCC(C)CNC(=O)c1csc(-c2sc(C)nc2-c2ccc(F)cc2)n1` (stereo not shown) [Example 1723], > 1000 nM.

`COc1ccc(N2CCN(C(=O)c3csc(-c4sc(C)nc4-c4ccc(F)cc4)n3)CC2)cc1OC` [Example 1953]: the IC50 is > 1000 nM. On the same count and under the same terms, with `CC(C)NC(=O)c1csc(-c2c(-c3ccc(F)cc3)n[nH]c2C2CCN(C(=O)c3ccc(Cl)c(Br)c3)CC2)n1` [Example 1035] the figure was > 1000 nM.

In the case of `CC(C)NC(=O)c1csc(-c2c(-c3ccc(F)cc3)noc2CNc2cc(F)cc(F)c2)n1` [Example 1653], the IC50 is > 1000 nM. Take `CC(C)NC(=O)c1csc(-c2c(-c3ccc(F)cc3)n[nH]c2C2CCN(C(=O)CC3Cc4ccccc4C3)CC2)n1` [Example 917]: the IC50 was > 1000 nM. On the same count and under the same terms, under `CC(C)NC(=O)c1csc(-c2c(-c3ccc(F)cc3)noc2CNCCc2ccccc2)n1` [Example 1430] stands > 1000 nM.

A word on the IC50: it is the concentration at which inhibition is half-maximal. Low readings indicate inhibition by little substance, high ones a need for much substance.
